Values joined by “and” are separate entries in the source; they are usually repeats but may differ in a detail not shown here. Equal entries are not always repeated. Toxic doses and inconclusive results are not listed.
System: P388 leukemia ip, CD2F1 mice, survival T/C
Assay: NCI In Vivo Anticancer Drug Screen. Data for tumor model P388 Leukemia (intraperitoneal) in CD2F1 (CDF1) mice
Conditions: endpoint: median survival time, higher = longer survival
Summary of the method: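 Mice carrying the transplanted tumor received test compound or vehicle. Survival was recorded in each group, and the value is the treated-group measurement divided by that of the vehicle-treated control group.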

[1] = dose: 60.0 mg/kg/injection, schedule: Q01DX005 (ip), vehicle: saline with Tween-80
[2] = dose: 120.0 mg/kg/injection, schedule: Q01DX005 (ip), vehicle: saline with Tween-80
[3] = dose: 240.0 mg/kg/injection, schedule: Q01DX005 (ip), vehicle: saline with Tween-80
[4] = dose: 50.0 mg/kg/injection, schedule: Q01DX009 (ip), vehicle: saline
[5] = dose: 100.0 mg/kg/injection, schedule: Q01DX009 (ip), vehicle: saline
[6] = dose: 200.0 mg/kg/injection, schedule: Q01DX009 (ip), vehicle: saline

SMILES: CCC1NN1C(C)C (centres undefined)
- T/C (dose: 50.0 mg/kg/injection, schedule: Q04DX002 (ip), vehicle: saline with Tween-80): 100 % of control
- T/C (dose: 100.0 mg/kg/injection, schedule: Q04DX002 (ip), vehicle: saline with Tween-80): 95 % of control
- T/C (dose: 200.0 mg/kg/injection, schedule: Q04DX002 (ip), vehicle: saline with Tween-80): 107 % of control

SMILES: COCCOCn1cccc1Cc1ccc(OC)cc1
- T/C (dose: 100.0 mg/kg/injection, schedule: Q01DX001 (ip), vehicle: distilled water + Tween-80 + alcohol): 100 % of control
- T/C (dose: 200.0 mg/kg/injection, schedule: Q01DX001 (ip), vehicle: distilled water + Tween-80 + alcohol): 105 % of control
- T/C (dose: 400.0 mg/kg/injection, schedule: Q01DX001 (ip), vehicle: distilled water + Tween-80 + alcohol): 96 % of control

SMILES: O=c1[nH]cnc2sc3c(c12)CCC3
- T/C [1]: 100 % of control
- T/C [2]: 88 % of control
- T/C [3]: 94 % of control

SMILES: C[n+]1cccc(/C=N/O)c1
- T/C (dose: 100.0 mg/kg/injection, schedule: Q04DX002 (ip), vehicle: saline): 100 % of control
- T/C (dose: 200.0 mg/kg/injection, schedule: Q04DX002 (ip), vehicle: saline): 100 % of control

SMILES: O=C1C(=C(O)c2ccccc2)C(=O)c2ccccc21
- T/C (dose: 15.0 mg/kg/injection, schedule: Q01DX005 (ip), vehicle: saline with Tween-80): 99 % of control
- T/C (dose: 30.0 mg/kg/injection, schedule: Q01DX005 (ip), vehicle: saline with Tween-80): 105 % of control
- T/C [1]: 105 % of control and 109 % of control
- T/C [2]: 104 % of control

SMILES: O=C(OC1C2CCC2C2CC21)c1ccc([N+](=O)[O-])cc1[N+](=O)[O-] (centres undefined)
- T/C [4]: 105 % of control
- T/C [5]: 99 % of control and 92 % of control
- T/C [6]: 92 % of control and 93 % of control

SMILES: O=C(CNC(=O)c1ccccc1)N/N=C/c1c(O)ccc2ccccc12
- T/C [1]: 95 % of control
- T/C [2]: 93 % of control
- T/C [3]: 101 % of control

SMILES: CC1OC(OC23C(=O)CC(C)(O)CC2(O)C=CC2=C3C(=O)c3ccc(C4CC(OC5CCC(OC6CC(O)C(O)C(C)O6)C(C)O5)C(O)C(C)O4)c(O)c3C2=O)CCC1O (centres undefined)
- T/C (dose: 1.0 mg/kg/injection, schedule: Q01DX005 (ip), vehicle: DMSO): 104 % of control
- T/C (dose: 2.0 mg/kg/injection, schedule: Q01DX005 (ip), vehicle: DMSO): 105 % of control
- T/C (dose: 4.0 mg/kg/injection, schedule: Q01DX005 (ip), vehicle: DMSO): 99 % of control
- T/C (dose: 6.25 mg/kg/injection, schedule: Q04DX003 (ip), vehicle: Klucel (hydroxypropylcellulose) (HPC)): 100 % of control
- T/C (dose: 12.5 mg/kg/injection, schedule: Q04DX003 (ip), vehicle: Klucel (hydroxypropylcellulose) (HPC)): 91 % of control
- T/C (dose: 25.0 mg/kg/injection, schedule: Q04DX003 (ip), vehicle: Klucel (hydroxypropylcellulose) (HPC)): 100 % of control

SMILES: C[n+]1ccc(Nc2ccc(NC(=O)c3ccc(Nc4cc[n+](C)c5ccc(N)cc45)cc3)cc2)cc1
- T/C (dose: 1.0 mg/kg/injection, schedule: Q04DX003 (ip), vehicle: Klucel (hydroxypropylcellulose) (HPC)): 116 % of control
- T/C (dose: 2.0 mg/kg/injection, schedule: Q01DX005 (ip), vehicle: suspension in saline): 187 % of control
- T/C (dose: 2.0 mg/kg/injection, schedule: Q04DX003 (ip), vehicle: Klucel (hydroxypropylcellulose) (HPC)): 166 % of control
- T/C (dose: 2.88 mg/kg/injection, schedule: Q04DX003 (ip), vehicle: water): 158 % of control
- T/C (dose: 4.0 mg/kg/injection, schedule: Q01DX005 (ip), vehicle: suspension in saline): 239 % of control
- T/C (dose: 4.0 mg/kg/injection, schedule: Q04DX003 (ip), vehicle: Klucel (hydroxypropylcellulose) (HPC)): 168 % of control
- T/C (dose: 4.8 mg/kg/injection, schedule: Q04DX003 (ip), vehicle: water): 167 % of control
- T/C (dose: 8.0 mg/kg/injection, schedule: Q01DX005 (ip), vehicle: suspension in saline): 283 % of control
- T/C (dose: 8.0 mg/kg/injection, schedule: Q04DX003 (ip), vehicle: Klucel (hydroxypropylcellulose) (HPC)): 237 % of control
- T/C (dose: 8.0 mg/kg/injection, schedule: Q04DX003 (ip), vehicle: water): 200 % of control
- T/C (dose: 9.0 mg/kg/injection, schedule: Q04DX003 (ip), vehicle: water): 170 % of control
- T/C (dose: 13.3 mg/kg/injection, schedule: Q04DX003 (ip), vehicle: water): 238 % of control
- T/C (dose: 16.0 mg/kg/injection, schedule: Q04DX003 (ip), vehicle: Klucel (hydroxypropylcellulose) (HPC)): 270 % of control
- T/C (dose: 32.0 mg/kg/injection, schedule: Q04DX003 (ip), vehicle: Klucel (hydroxypropylcellulose) (HPC)): 294 % of control

SMILES: C/C(=N\N)C1=NNC(C)(C)NN1
- T/C (dose: 50.0 mg/kg/injection, schedule: Q01DX009 (ip), vehicle: Klucel (hydroxypropylcellulose) (HPC)): 96 % of control
- T/C (dose: 100.0 mg/kg/injection, schedule: Q01DX009 (ip), vehicle: Klucel (hydroxypropylcellulose) (HPC)): 96 % of control
- T/C (dose: 200.0 mg/kg/injection, schedule: Q01DX009 (ip), vehicle: Klucel (hydroxypropylcellulose) (HPC)): 98 % of control

SMILES: CCCCCCCCCCCC#N
- T/C (dose: 100.0 mg/kg/injection, schedule: Q04DX003 (ip), vehicle: saline): 108 % of control
- T/C (dose: 200.0 mg/kg/injection, schedule: Q04DX003 (ip), vehicle: saline): 104 % of control
- T/C (dose: 400.0 mg/kg/injection, schedule: Q04DX003 (ip), vehicle: saline): 116 % of control

SMILES: COc1ccc2c(c1O)N(C(C)=O)C1C3C(O)OCC=C4CN5CCC21C5CC43 (centres undefined)
- T/C (dose: 4.5 mg/kg/injection, schedule: Q01DX009 (ip), vehicle: Klucel (hydroxypropylcellulose) (HPC)): 100 % of control
- T/C (dose: 5.0 mg/kg/injection, schedule: Q01DX009 (ip), vehicle: saline): 116 % of control
- T/C (dose: 9.0 mg/kg/injection, schedule: Q01DX009 (ip), vehicle: Klucel (hydroxypropylcellulose) (HPC)): 103 % of control
- T/C (dose: 10.0 mg/kg/injection, schedule: Q01DX009 (ip), vehicle: saline): 111 % of control
- T/C (dose: 18.0 mg/kg/injection, schedule: Q01DX009 (ip), vehicle: Klucel (hydroxypropylcellulose) (HPC)): 101 % of control
- T/C (dose: 20.0 mg/kg/injection, schedule: Q01DX009 (ip), vehicle: saline): 118 % of control
- T/C (dose: 36.0 mg/kg/injection, schedule: Q01DX009 (ip), vehicle: Klucel (hydroxypropylcellulose) (HPC)): 110 % of control
- T/C (dose: 72.0 mg/kg/injection, schedule: Q01DX009 (ip), vehicle: Klucel (hydroxypropylcellulose) (HPC)): 104 % of control

SMILES: COC(=O)c1nc(N)nc(C(=O)OC)c1C(=O)c1ccc(Cl)cc1Cl
- T/C [1]: 95 % of control
- T/C [2]: 100 % of control

SMILES: COc1cccc(NCCCSC)c1
- T/C (dose: 50.0 mg/kg/injection, schedule: Q01DX005 (ip), vehicle: saline): 102 % of control
- T/C (dose: 100.0 mg/kg/injection, schedule: Q01DX005 (ip), vehicle: saline): 116 % of control

SMILES: O=c1[nH]c(=O)n(C2OC(CCl)C(O)C2O)cc1F (centres undefined)
- T/C (dose: 30.0 mg/kg/injection, schedule: Q04DX002 (ip), vehicle: saline): 99 % of control
- T/C (dose: 43.0 mg/kg/injection, schedule: Q04DX002 (ip), vehicle: water): 104 % of control
- T/C (dose: 60.0 mg/kg/injection, schedule: Q04DX002 (ip), vehicle: saline): 102 % of control
- T/C (dose: 86.0 mg/kg/injection, schedule: Q04DX002 (ip), vehicle: water): 106 % of control
- T/C (dose: 120.0 mg/kg/injection, schedule: Q04DX002 (ip), vehicle: saline): 116 % of control
- T/C (dose: 172.0 mg/kg/injection, schedule: Q04DX002 (ip), vehicle: water): 113 % of control
- T/C (dose: 240.0 mg/kg/injection, schedule: Q04DX002 (ip), vehicle: saline): 109 % of control
- T/C (dose: 344.0 mg/kg/injection, schedule: Q04DX002 (ip), vehicle: water): 113 % of control

SMILES: CCOC(=O)CNC(=O)NNC(=O)OCC
- T/C (dose: 6.25 mg/kg/injection, schedule: Q01DX009 (ip), vehicle: saline): 98 % of control
- T/C (dose: 12.5 mg/kg/injection, schedule: Q01DX009 (ip), vehicle: saline): 91 % of control
- T/C [4]: 100 % of control
- T/C [5]: 100 % of control
- T/C [6]: 100 % of control

SMILES: COC(=O)c1cccc(OC)c1OC
- T/C (dose: 100.0 mg/kg/injection, schedule: Q01DX009 (ip), vehicle: saline with Tween-80): 109 % of control
- T/C (dose: 200.0 mg/kg/injection, schedule: Q01DX009 (ip), vehicle: saline with Tween-80): 100 % of control
- T/C (dose: 400.0 mg/kg/injection, schedule: Q01DX009 (ip), vehicle: saline with Tween-80): 109 % of control

SMILES: O=C(O)c1c2c(nc3ccccc13)CCCC2
- T/C (dose: 50.0 mg/kg/injection, schedule: Q01DX005 (ip), vehicle: Klucel + Tween-80): 94 % of control
- T/C (dose: 100.0 mg/kg/injection, schedule: Q01DX005 (ip), vehicle: Klucel + Tween-80): 107 % of control

SMILES: Cc1c(Cl)c(Cl)nn1C(C)C(=O)N(C)C (centres undefined)
- T/C (dose: 100.0 mg/kg/injection, schedule: Q04DX003 (ip), vehicle: Klucel (hydroxypropylcellulose) (HPC)): 95 % of control
- T/C (dose: 200.0 mg/kg/injection, schedule: Q04DX003 (ip), vehicle: Klucel (hydroxypropylcellulose) (HPC)): 95 % of control

Reference: PubChem BioAssay AID330 (DTP/NCI, 2004)
